Test results from patent US4374284A, “Antiulcer, antiinflammatory, and antiallergic agent comprising as the main ingredient olean-12-ene-3β, 30-diol which is devoid of side effects of glycyrrhetinic acid and a new process for preparation of olean-12-ene-3β, 30-diol” (Minophagen Pharmaceutical Company, priority 1980, dated 1983).
Entries after “also recorded” stand apart in the source; their conditions may differ.

Experiments:
stress-induced ulcer = experiment: mice experiments on stress-induced ulcer (restraint plus water immersion); assay type: in vivo, male ddY mice; settings: for ulcer index: 200 mg/kg p.o.
Method: (a) Mice Experiments on stress-induced ulcer Experimental procedures:
Male ddY mice weighing about 20 g were made to fast for 18 hours. Water was given freely. Compounds to be tested were suspended in Tween 80 to prepare an aqueous suspension and administered orally. Immediately thereafter, the mice were subjected to restraint plus water immersion stress (25° C.) for 6 hours. Thereafter, the stomach was excised and fixed by formalin. The degree of ulcer was shown as a total of the length. The control group was given only the solvent.

[1] = system: rat paw edema induced with carrageenin; experiment: test on rat paw edema induced with carrageenin (antiinflammatory); assay type: in vivo, male Wister rats
Method: (a) Test on rat paw induced with carrageenin
To the plantar side of the hind paw of male Wister rats was administered subcutaneously 0.05 ml/rat of 10% saline solution of carrageenin. Edema after three hours was measured by the volume method and the rate of inhibition was assayed. Compounds were administered orally 30 minutes before administration of carrageenin. [formula]

[2] = system: ulcers induced by acetic acid; experiment: experiments with rats on ulcers induced by acetic acid (chronic gastric ulcers); assay type: in vivo; settings: for ulcer value (major axis × minor axis): p.o., 14 days
Method: (c) Experiments with rats on ulcers induced by acetic acid
Chronic gastric ulcers were induced by penetrating 100% acetic acid serosally into gastric wall for 60 sec. using a small cup (6 mm in diameter, 5 mm in height).
From the next day, compounds to be tested were administered orally twice a day (morning and evening) for 14 days. Autopsies were carried out 15 days after the administrations.

[3] = target: T1, Δ^4 -5β-reductase for aldosterone in rat liver (Rattus norvegicus, UniProt P31210); experiment: inhibitory action on Δ^4-5β-reductase for aldosterone; assay type: biochemical; settings: summary in words, liver reductase
T1 construct: centrifuged again at 105,000 g to obtain Δ^4 -5β-reductase as the supernatant; from tissue; host or cells: rat liver, 105,000 g supernatant (cytosol)
T1 sequence (P31210 1-326): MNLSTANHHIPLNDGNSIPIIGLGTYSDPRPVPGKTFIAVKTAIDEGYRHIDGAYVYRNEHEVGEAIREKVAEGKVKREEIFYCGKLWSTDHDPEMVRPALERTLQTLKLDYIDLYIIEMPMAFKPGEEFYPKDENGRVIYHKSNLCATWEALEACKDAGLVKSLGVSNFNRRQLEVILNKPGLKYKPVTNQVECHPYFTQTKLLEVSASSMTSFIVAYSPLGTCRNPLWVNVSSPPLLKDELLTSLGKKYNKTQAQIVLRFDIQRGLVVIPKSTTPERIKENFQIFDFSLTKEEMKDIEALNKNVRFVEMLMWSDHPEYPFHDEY
Method: (§1) In vitro experimental results regarding effects of glycyrrhetinic acid (II) and its modified compounds (III), (IV), and (I) on Δ^4 -5α and 5β-reductase for aldosterone in rat liver will be shown below.
(§2) Assay for activity of Δ^4 -5α and 5β-reductase
(§3) (1) Preparation of enzyme solutions
(§4) Rat livers were perfused with saline and excised to prepare a 25% or 50% homogenate with a solution of 0.25 M sucrose and 1 mM EDTA. The homogenate was spun at 10,000 g for 20 minutes to separate supernatant, which was centrifuged again at 105,000 g to obtain Δ^4 -5β-reductase as the supernatant. The pellet was appropriately diluted with a solution of 0.25 M sucrose-1 mM EDTA to use as a 5α-reductase solution.
(§5) (2) Conditions for incubation and assay
(§6) 1 Aldosterone . . . 0.173 μM/0.05 ml ethanol solution
(§7) 2 Glycyrrhetinic acid or its modified compounds . . . 0.173 μM/0.05 ml ethanol solution Control . . . 0.05 ml ethanol solution
(§8) 5α-reductase solution 0.1 ml
(§9) 5β-reductase solution 0.1 ml or 0.2 ml
(§10) 5 Phosphate buffer (0.1 M, pH 7.2) 1 ml
(§11) The components 1 , 2 , 3 , 4 , 5 , and 6 mentioned above were mixed to bring the total volume up to 2.5 ml. The mixture was incubated at 37° C. for 20 minutes. Before the incubation, however, 1 ml aliquot was removed from 2.5 ml of the mixture mentioned above and extracted with 5 ml of methylene dichloride. After the incubation, the remaining 1.5 ml was extracted with 5 ml of methylene dichloride. The optical density of the two methylene dichloride solutions prepared before and after the incubation was measured by a spectrophotometer (Hitachi) at 240 mμ. Inhibition % of Δ^4 -5α and 5β-reductase activity was calculated from the difference in the optical density.

[4] = system: Δ^4 -5β-reductase for aldosterone in rat liver; experiment: as above; assay type: biochemical; settings: conclusion from reductase experiments
Method: as §1, §2, §3, §4, §5, §6, §7, §8, §9, §10, §11

[5] = system: Arthus phenomenon (type III allergy); experiment: Arthus phenomenon test (type III allergy); assay type: in vivo, female guinea pig
Method: (b) Arthus phenomenon test (type III allergy)
To the back part of female guinea pig weighing 250-300 g, 10 mg/kg of egg albumin was administered subcutaneously. After 21 days, 2 mg/kg of egg albumin was administered intravenously, whereby death of the guinea pig due to anaphylactic shock was recognized to confirm establishment of sensitization. Thirty minutes after compounds to be tested were administered intraperitoneally, 0, 10, 100, 1000 μg/0.1 ml of egg albumin were each administered to the abdominal part which had been shaved.

CC1(C)[C@@H](O)CC[C@]2(C)[C@H]3CC=C4[C@@H]5C[C@@](C)(CO)CC[C@]5(C)CC[C@@]4(C)[C@]3(C)CC[C@@H]12 [I, olean-12-ene-3β, 30-diol]
inhibitory effect on stress-induced ulcer (in words) (stress-induced ulcer; 200 mg/kg): showed a stronger inhibitory effect than glycyrrhetinic acid (II) | ulcer index (stress-induced ulcer; 1st experiment, control 5.63 ± 0.55): 2.94 ± 0.81 | ulcer index (stress-induced ulcer; 2nd experiment, control 4.13 ± 0.8): 2.19 ± 0.6 | ulcer index (stress-induced ulcer; 3rd experiment, control 6.00 ± 0.87): 3.88 ± 0.79 | ulcer index (stress-induced ulcer; 4th experiment, control 4.20 ± 0.70): 1.89 ± 0.53 | antiulcer effect compared with glycyrrhetinic acid (in words) (stress-induced ulcer; all antiulcer experiments (stress, aspirin, acetic acid)): shows superior effects to glycyrrhetinic acid in all the experiments | edema % ([1]; 200 mg/kg p.o., after three hours, control 71 ± 6): 52 ± 5% | inhibition at 200 mg/kg ([1]; Rattus norvegicus, po, 3 h, edema, 200 mg/kg p.o., after three hours): 26.8% | inhibitory activity against inflammation (in words) ([1]; rat, in vivo): has an inhibitory activity against inflammation, but the activity is inferior to that of aspirin; also recorded: will not affect the inhibitory activity of aspirin | ulcer value (major axis × minor axis) ([2]; Experiment 1, 200 mg/kg (half dose twice/day), control 12.0 ± 2.3): 10.1 ± 3.4 | ulcer value (major axis × minor axis) ([2]; Experiment 1, 400 mg/kg (half dose twice/day), control 12.0 ± 2.3): 7.5 ± 0.7 | ulcer value (major axis × minor axis) ([2]; Experiment 2, 200 mg/kg (half dose twice/day), control 8.9 ± 1.7): 6.7 ± 2.2 | ulcer value (major axis × minor axis) ([2]; Experiment 2, 400 mg/kg (half dose twice/day), control 8.9 ± 1.7): 5.2 ± 1.2 | ulcer value (major axis × minor axis) ([2]; Total, 200 mg/kg (half dose twice/day), control 10.4 ± 1.4): 8.4 ± 2.0 | ulcer value (major axis × minor axis) ([2]; Total, 400 mg/kg (half dose twice/day), control 10.4 ± 1.4, * p < 0.05): 6.2 ± 0.8 | inhibitory effect on acetic acid ulcer (in words) ([2]; dose of 200 mg): showed an inhibitory effect to some extent | healing rate ([2]; dose of 400 mg): more than 40% | inhibitory effect on acetic acid ulcer (in words) ([2]; dose of 400 mg): clearly showed inhibitory effects | effect upon Δ^4 -5α-5β-reductase (in words), 5β [3]: no inhibitory activity | aldosterone-like action (in words) [4]: entirely devoid of aldosterone-like action | area ([5]; egg albumin 10 μg/0.1 ml, 100 mg/kg intraperitoneally, control 0): 0 mm^2 | area ([5]; egg albumin 10 μg/0.1 ml, 200 mg/kg intraperitoneally, control 0): 0 mm^2 | area ([5]; egg albumin 100 μg/0.1 ml, 100 mg/kg intraperitoneally, control 110 ± 67): 98 ± 98 mm^2 | area ([5]; egg albumin 100 μg/0.1 ml, 200 mg/kg intraperitoneally, control 110 ± 67): 30 ± 30 mm^2 | area ([5]; egg albumin 1000 μg/0.1 ml, 100 mg/kg intraperitoneally, control 409 ± 130): 334 ± 174 mm^2 | area ([5]; egg albumin 1000 μg/0.1 ml, 200 mg/kg intraperitoneally, control 409 ± 130): 76 ± 62 mm^2
